Measurements as given in PubChem BioAssay (NCI).
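96-well plates; 48 h exposure; 5 concentrations. Endpoints by linear interpolation between flanking doses. Not reached: highest tested concentration assigned. TGI is the concentration that stops growth completely.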

Assays:
Experiment in all cases: inhibition of tumour cell growth, NCI panel, 48 h
OVCAR-8 ovarian = tested on: OVCAR-8 ovarian
NCI-H226 lung = tested on: NCI-H226 lung
T-47D breast = tested on: T-47D breast
UACC-257 melanoma = tested on: UACC-257 melanoma
SF-268 CNS = tested on: SF-268 CNS
RXF 393 renal = tested on: RXF 393 renal
ACHN renal = tested on: ACHN renal
CCRF-CEM leukemia = tested on: CCRF-CEM leukemia
M14 melanoma = tested on: M14 melanoma
SF-295 CNS = tested on: SF-295 CNS
NCI-H460 lung = tested on: NCI-H460 lung
UACC-62 melanoma = tested on: UACC-62 melanoma
HCC-2998 colon = tested on: HCC-2998 colon
UO-31 renal = tested on: UO-31 renal
A498 renal = tested on: A498 renal
A549 NSCLC = tested on: A549 NSCLC
786-0 renal = tested on: 786-0 renal
TK-10 renal = tested on: TK-10 renal

Row | Compound | TGI (OVCAR-8 ovarian) [µM] | TGI (NCI-H226 lung) [µM] | TGI (T-47D breast) [µM] | TGI (UACC-257 melanoma) [µM] | TGI (SF-268 CNS) [µM] | TGI (RXF 393 renal) [µM] | TGI (ACHN renal) [µM] | TGI (CCRF-CEM leukemia) [µM] | TGI (M14 melanoma) [µM] | TGI (SF-295 CNS) [µM] | TGI (NCI-H460 lung) [µM] | TGI (UACC-62 melanoma) [µM] | TGI (HCC-2998 colon) [µM] | TGI (UO-31 renal) [µM] | TGI (A498 renal) [µM] | TGI (A549 NSCLC) [µM] | TGI (786-0 renal) [µM] | TGI (TK-10 renal) [µM]
1 | CCCCCCCCCCCCCCCCOP(=O)(O)OP(=O)(O)OCC1OC(n2ccc(N)nc2=O)CC1O (centres undefined) | > 100 | > 100 | > 100 | > 100 | > 100 | > 100 | > 100 | > 100 | > 100 | > 100 | > 100 | > 100 | > 100 | > 100 | > 100 | > 100 | > 100 | > 100
2 | O=S(=O)(O)c1cc(S(=O)(=O)O)c2c(N=Nc3cccc4ccccc34)c(O)ccc2c1 | > 100 | > 100 | > 100 | > 100 | > 100 | > 100 | > 100 | > 100 | > 100 | > 100 | > 100 | > 100 | > 100 | > 100 | > 100 | > 100 | > 100 | > 100
3 | O=C(O)c1ccc(Nc2ccnc3cc(Cl)ccc23)cc1O | > 100 | > 100 | > 100 | > 100 | > 100 | > 100 | > 100 | > 100 | > 100 | > 100 | > 100 | > 100 | > 100 | > 100 | > 100 | > 100 | > 100 | > 100
4 | COC1Cc2c(C)c(OC(C)=O)c3cccnc3c2O1 (centres undefined) | 44.7 | > 100 | 62.3 | 29.8 | 34 | 31.7 | 22.8 | 34.1 | 27.7 | 93.3 | 61.5 | 29 | > 100 | 27.3 | > 100 | 34 | 34.3 | > 100
5 | COc1ccccc1C1C2=C(COC2=O)OC(C)(C)Oc2cc3c(cc21)OCO3 (centres undefined) | > 100 | > 24.8 | > 100 | > 51.4 | 98.1 | 4.87 | > 94.1 | > 100 | > 85.1 | > 45.6 | > 40.3 | > 25.4 | > 100 | > 100 | 24.7 | > 100 | > 68.8 | > 28.8
6 | CC1=CC(C)C(C)N(CCNC(=O)Nc2ccccc2)c2ccccc21 (centres undefined) | 54.3 | 72.9 | 61.2 | 42.7 | > 100 | 40.3 | 63.7 | 62.8 | 70 | 40.6 | 74.4 | 49.4 | 61.1 | 98.6 | 66 | 55.7 | > 100 | 78.2
7 | Cc1ccc2c(c1)C(=O)/C(=C1/CCc3ccc(C)cc31)C2 | > 100 | > 100 | > 100 | > 100 | > 100 | > 100 | > 100 | > 100 | > 100 | > 100 | > 100 | > 100 | > 100 | > 100 | > 100 | > 100 | > 100 | > 100
8 | COC(=O)c1ccccc1C1CN=NC12Cc1c(C)cc(C)cc1C2=O (centres undefined) | > 100 | > 100 | > 100 | > 100 | > 100 | > 100 | > 100 | > 100 | > 100 | > 100 | > 100 | > 100 | > 100 | > 100 | > 100 | > 100 | > 100 | > 100
9 | Cc1[nH]c2c(C)ccc(C)c2c1CC(=O)O | > 100 | > 100 | > 100 | > 100 | > 100 | > 100 | > 100 | 42.3 | > 100 | > 100 | > 100 | > 100 | > 100 | > 100 | > 100 | > 100 | > 100 | > 100
10 | O=C1c2ccccc2C(=O)c2c(OCC3CO3)ccc(OCC3CO3)c21 (centres undefined) | 5.94 | 35.9 | 24.1 | 19.4 | 2.29 | 8.31 | 6.63 | 0.393 | 4.78 | 11.8 | 8.86 | 7.95 | > 46.3 | 10.4 | > 47.5 | 22.2 | 6.48 | 53.1
11 | Cc1c(O)c(OC2OC(CO)C(O)C(O)C2O)cc2c1CC[C@@H]1C2(C)C(=O)C[C@]2(C)[C@@H]([C@@](C)(O)C(O)/C=C/C(C)(C)O)[C@H](O)C[C@@]12C (some centres undefined) | > 100 | > 100 | > 100 | > 100 | > 100 | > 100 | > 100 | > 100 | > 100 | > 100 | > 100 | > 100 | > 100 | > 100 | > 100 | > 100 | > 100 | > 100
12 | CCOC(=O)c1ccc2c(c1)nc1n2C(c2c(F)cccc2F)SC1 (centres undefined) | 58.7 | 34.6 | 49.9 | > 100 | > 100 | > 100 | > 100 | > 100 | > 100 | 73.7 | > 100 | > 100 | > 100 | > 100 | > 100 | > 100 | 67.8 | > 100
13 | COC(C)(C)C(O)C(O)C[C@H](C)C1CC=C2C1(C)CCC1[C@@]3(C)CCC(OC(C)=O)C(C)(C)C3CC(OC3OC(COC(C)=O)C(O)C(O)C3O)[C@@]21C (some centres undefined) | > 10 | > 10 | 8.73 | > 10 | > 10 | > 10 | > 10 | 7.96 | > 10 | > 10 | > 10 | > 10 | 6.15 | 2.07 | 8.68 | > 10 | > 10 | > 10
14 | COC(=O)C1([C@@H]2C[C@@H](O)[C@]3(C)CC/C=C(\C)CCC[C@H](C)[C@H](O)[C@@H]2O3)CC1 | > 100 | 69.2 | > 100 | > 100 | > 100 | > 100 | > 100 | > 100 | > 100 | > 100 | > 100 | > 100 | > 100 | 60.3 | > 100 | > 100 | > 100 | > 100
15 | O=C(NO)c1cccc(OCc2ccc(Br)cc2)c1 | 17.4 | 27.6 | 23.9 | > 100 | 38.1 | 25.6 | 12.8 | > 20 | 20.1 | > 62.1 | 14 | 20.6 | 28.4 | 14.4 | 32.2 | > 58.5 | 10.9 | > 100
16 | COC(=O)[C@H](CCSC)NC(=O)c1ccc(CNC(=O)/C=C/c2cccc(Oc3ccccc3)c2)cc1 | > 100 | > 62.9 | 27 | 26.9 | > 100 | 55.4 | > 100 | > 100 | 26.8 | > 100 | > 100 | 38.2 | > 84 | > 100 | 48.3 | > 100 | > 100 | > 87
17 | CC1=C(C)SC(=C2Sc3c(n(C)c(=O)[nH]c3=O)S2)S1 | > 100 | > 100 | > 100 | > 100 | > 100 | > 100 | > 100 | > 100 | > 100 | > 100 | > 100 | > 100 | > 100 | > 100 | > 100 | > 100 | > 100 | > 100
18 | Cc1cc(Cl)nc(NC(=O)CSc2ccc(Cl)cc2)n1 | > 100 | > 100 | > 100 | > 100 | > 100 | > 100 | > 100 | > 100 | > 100 | > 100 | > 100 | > 100 | > 100 | > 100 | > 100 | > 100 | > 100 | > 100
19 | O=C(O)CN1CCNCCN(CC(=O)O)CC1 | 11.6 | > 42.9 | > 100 | > 100 | > 100 | > 100 | > 100 | > 100 | > 100 | > 100 | > 64.4 | > 100 | 55.7 | > 100 | > 68.7 | > 80 | > 100 | > 90.6
20 | CCOC(=O)CSc1nc(-c2ccc(OC)cc2)c(C#N)c(=O)[nH]1 | > 100 | > 100 | > 100 | > 100 | > 100 | > 100 | > 100 | > 100 | > 100 | > 100 | > 100 | > 100 | > 100 | > 100 | > 100 | > 100 | > 100 | > 100
21 | C1COC2SC3=C(SC(=C4SC5=C(SCCS5)S4)S3)SC2O1 (centres undefined) | > 100 | > 100 | > 100 | > 100 | > 100 | > 100 | > 100 | > 100 | > 100 | > 100 | > 100 | > 100 | > 100 | > 100 | > 100 | > 100 | > 100 | > 100
22 | CN(C)c1ccc(N=Nc2cccc3ccoc23)cc1 | > 100 | > 100 | > 100 | > 100 | > 100 | > 100 | > 100 | > 100 | > 100 | > 100 | > 100 | > 100 | > 100 | > 74.3 | > 100 | > 100 | > 100 | > 100
23 | CC12CN(CC[N+](C)(C)C)CC1(C)C1CCC2O1 (centres undefined) | > 100 | > 100 | > 100 | > 100 | > 100 | > 100 | > 100 | > 100 | > 100 | > 100 | > 100 | > 100 | > 100 | > 100 | > 100 | > 100 | > 100 | > 100
